From patent publication US20240317806A1, “TOPICAL PEPTIDE FORMULATION FOR THE TREATMENT OF SEXUAL DYSFUNCTION” (priority 2023, published 2024)

Assays:
[1] = test system: erectile function of healthy rats; assay: Erectile function (ICP/MAP ratio) after ganglionic electrical stimulation; type: in vivo, Sprague Dawley rats; conditions: peptide topical 4 mg/Kg 15 min before; sildenafil SC 25 mg/Kg 30 min before; EFS 8 Hz; 0-45 min
Text: For this study, PnPP-19 was produced with TFA or Acetate as a counter-ion. Usually, peptides with TFA as a counter-ion are used in the preclinical stage of development; nevertheless, for safety purposes, the counter-ion is changed to acetate for clinical stage of development. […] Also, to compare if the counter-ion exchange would impact the biological effect of PnPP-19, two peptide batches was produced: one with the counter-ion TFA and another with the counter-ion Acetate. Sildenafil was used as a positive control (subcutaneously administration).
(§1) Erectile function was evaluated by means of the intracavernosal pressure/mean arterial pressure (ICP/MAP) ratio at 4 different times (0, 15, 30 and 45 minutes) after application of ganglionic electrical functional stimulus (EFS) of 8 Hz.
(§2) The formulated peptide (both with TFA counter-ion and Acetate) was applied topically to the penis of the rats 15 minutes before ICP/MAP measurements, at a dose of 1000 μg diluted in 200 μL of the formulation (dose of 4 mg/Kg), reaching a concentration of 5 mg/mL or 0.5% w/v of the peptide in the formulation. Sildenafil was applied SC, at a dose of 25 mg/Kg (1 mL/Kg) 30 minutes before ICP/MAP measurements.

[2] = Mean arterial pressure and dermal irritation in the erectile function study; type: in vivo, Sprague Dawley rats; conditions: for MAP: mean ± standard deviation
Description: as §1, §2

[3] = Physicochemical properties of PnPP-19 peptide (pI, pKa)
Text: Aspects of the disclosure relate to pharmaceutical compositions comprising a PnPP-19 peptide (e.g., a peptide comprising or consisting of the amino acid sequence set forth in SEQ ID NO: 1). PnPP-19 is a synthetic, non-toxic peptide composed of 19 amino acid residues originating from the PnTx2-6 toxin, which was isolated from the venom of the Brazilian armadeira spider (Phoneutria nigriventer). In some embodiments, the isolated peptide (e.g., PnPP-19) is presented as a freeze-dried white powder (e.g., a solid physical form). In some embodiments, PnPP-19 is an amphipathic peptide with about 26% cationic amino acid residues. In some embodiments, PnPP-19 is positively charged at pH 7.

[4] = Release test in Franz vertical diffusion cells; type: in vitro ADME; conditions: peptide applied in saline or in the buffer of the formulations; after 6 hours (peak) and until 24 hours
Description: For the release test, a cellulose acetate membrane was used to generate the physical barrier between a donor compartment, where the formulations are added, and the recipient compartment, where the peptide is measured.
(§3) The assays were conducted in Franz vertical diffusion cells with 1.767 cm^2 of area for diffusion of the peptide, containing a donor compartment with a capacity of 1 mL and a recipient compartment with a capacity of 7 mL. To the recipient compartment, 7 mL of the biorelevant solution were added, in which the media selected by preliminary studies was 20 mM sodium acetate buffer pH 5.0+0.5% Tween® 20. […] The cells were placed in a thermostatic bath, with a temperature of 37° C.±0.5° C., with the goal to mimic the surface temperature. The bioreceptor medium was subjected to 350 rpm agitation. In times 0.5-, 1-, 2-, 4-, 6- and 24 h, collections of 1 mL were made from the recipient compartment, in order to measure the peptide content.

[5] = Second permeation test in Franz cells; type: in vitro ADME; conditions: Strat-M membrane; applied in the FAPP20 buffer (20 mM sodium acetate buffer solution)
Description: In the first permeation assay, the physical barrier was the whole pig skin, which mimics the human stratum corneum. In the second permeation test, the physical barrier was the Strat-M membrane, which mimics the human stratum corneum.
as §3
In the first permeation assay, PnPP-19 was formulated with 6 μM of alpha cyclodextrin or with transcutol 15%.
Based on the release results described above, the 20 mM sodium acetate buffer pH 5.0+0.5% Tween® 20 was confirmed as the best receiving medium to be used in the permeation assay with Strat M membrane.

[6] = Biodistribution and pharmacokinetics after topical administration of radiolabeled PnPP-19 in FAPP20; type: in vivo, rats
Description: In order to evaluate the in vivo permeation of the peptide (and/or its fragments) in the formulation FAPP20, a biodistribution study was carried out in healthy rats. The peptide was radiolabeled with iodine [^131I] NaI using chloramine T method.
The study was conducted considering the dose of 5 mg/ml; and the maximum area of genital application. The final application volume was 100 μL that results in a dose of 2 mg/kg. The evaluation of biodistribution was carried out after the administration of a single dose of the peptide, applied topically to the skin of the penis after trichotomy of the rat's genital area.
Regarding biodistribution data, radiolabeled peptide concentrations were higher in skin, foreskin and SMC tissue at all times studied. In the first analyzed time, of 15 minutes, it was already possible to detect the peptide in the target tissues: the SMC layer, and the first layer of the skin, where the penile nerves are found (herein called of foreskin), showing that the peptide is rapidly absorbed into the skin. Within 30 minutes, its detection falls at the initial application site (skin), and increases in the foreskin, showing that it continues to be absorbed, and remains stable in the SMC layer. Within 60 minutes it is practically undetectable in tissues (FIG. 4).
For the pharmacokinetic (PK) study, the blood of the animals was collected at 0 h (predose), 15, 30 and 60 minutes, 3, 8 and 24 hours. All samples collected were quantified in a Wizard 3 gamma counter (PerkinElmer) for later calculation of the percentage of dose applied per gram of organ. […] While 42% of the applied dose is in the first layer of the skin, the peptide is detected in up to 18% in the SMC layer. Both peptide and its fragments were not found systemically (<1%) in the organs of choice (kidneys, testicles and epididymis) or in the blood, at any of the evaluated time-points, showing that the formulation remains in the application site, with no systemic absorption.

[7] = Phase 1 clinical study: pharmacokinetics; type: in vivo, human; conditions: 12 subjects
Description: Related to the pharmacokinetic analysis, the following outcomes were considered: detection of BZ371A, and its fragments, in the blood at the following collected times: pre-dose, 15, 30, 60, 180 and 360 minutes; if detected, determine the pharmacokinetic parameters: maximum concentration, half-life, area under the curve, clearance, volume of distribution.

| Molecule | erectile function (ICP/MAP ratio) compared to negative control (vehicle) [1] | MAP ([2]; 0 min) | MAP ([2]; 15 min) | MAP ([2]; 30 min) | MAP ([2]; 45 min) | effect on MAP / systemic hypotension compared to vehicle ([2]; rats) | pKa [3] | quantification of PnPP-19 in the receptor media (controls) [4] | detection of PnPP-19 in the receptor compartment (control) [5] | applied dose/gram found in CC tissue (SMC layer) ([6]; 15 minutes after topical application to rat penis, normalized) | applied dose/gram found in the skin ([6]; 15 minutes after topical application to rat penis, normalized to total in all tissues) [%] | peptide and fragments found systemically (kidneys, testicles, epididymis, blood) ([6]; any of the evaluated time-points up to 24 hours) [%] | plasma concentrations of BZ371A fragments ([7]; no detectable concentrations, limit of detection=40 ng/ml) [ng/mL] | plasma concentrations of BZ371A ([7]; no quantifiable concentrations, LIQ=50 ng/ml, pre-dose to 360 minutes) [ng/mL] |
| --- | --- | --- | --- | --- | --- | --- | --- | --- | --- | --- | --- | --- | --- | --- |
| CCCc1nn(C)c2c(=O)[nH]c(-c3cc(S(=O)(=O)N4CCN(C)CC4)ccc3OCC)nc12 [Sildenafil, sildenafil] | not superior to the negative control group | 87 ± 10 (**) mmHg | 93 ± 8 (*) mmHg | 93 ± 8 (***) mmHg | 94 ± 7 (***) mmHg | significant decrease in MAP | – | – | – | – | – | – | – | – |
| Ac-GERRQYFWIAWYKLANSKK-NH2 [PnPP-19] | – | – | – | – | – | – | 12.4 | can be quantified in the receptor media | detected in the receptor compartment since initial time (0.5 h) | up to 18% | 42 | < 1 | < 40 | < 50 |
